Measured values: patent US11149033B2, “Heteroaryl compound, enantiomer, diastereomer or pharmaceutically acceptable salt thereof, and antiviral composition containing same as active ingredient” (priority 2016, dated 2021)
Like-named read-outs stand apart in the source and are kept apart here.

Legend:
B/Florida/04/2006 = assay: Antiviral activity (drug efficacy evaluation by concentration) against B/Florida/04/2006; type: cell-based, B type influenza virus
[1] = system: A/California/07/2009 (H1N1); assay: Antiviral activity (drug efficacy evaluation by concentration) against A/California/07/2009 (H1N1); type: cell-based, A type influenza virus; details: Influenza A virus
A/Perth/16/2009 (H3N2) = assay: Antiviral activity (drug efficacy evaluation by concentration) against A/Perth/16/2009 (H3N2); type: cell-based, A type influenza virus; details: Influenza A virus
[2] = read-out: EC50 B/Florida/04/2006, B/Florida/04/2006
[3] = CC50 B/Florida/04/2006, cytotoxicity in the B/Florida/04/2006 assay
[4] = H1N1, A/California/07/2009 (H1N1), read-out: EC50 A/California/07/2009 (H1N1)
[5] = H3N2, A/Perth/16/2009 (H3N2), read-out: EC50 A/Perth/16/2009 (H3N2)
[6] = CC50, third EC50/CC50 column pair (c7), beside the EC50 of c6

| Compound | EC50 (B/Florida/04/2006; [2]) [µM] | CC50 (in vitro; [3]) [µM] | EC50 [1, 4] [µM] | EC50 (A/Perth/16/2009 (H3N2); [5]) [µM] | melting point [°C] | EC50 (B/Florida/04/2006) [µM] | CC50 (in vitro; CC50, beside the EC50 of c2) [µM] | CC50 (in vitro; CC50, beside the EC50 of c4) [µM] | CC50 (in vitro; [6]) [µM] | EC50 ([1]; H1N1, read-out: EC50) [µM] | EC50 (A/Perth/16/2009 (H3N2); H3N2, read-out: EC50) [µM] |
| --- | --- | --- | --- | --- | --- | --- | --- | --- | --- | --- | --- |
| Cc1nn(Cc2nnc(SCc3ccccc3-c3ccccc3)o2)c(C)c1Br [Compound 1, 2-(([1,1′-biphenyl]-2-ylmethyl)thio)-5-((4-bromo-3,5-dimethyl-1H-pyrazol-1-yl)methyl)-1,3,4-oxadiazole] | 0.98 | 41.3 | 0.77 | 1.15 | – | – | – | – | – | – | – |
| Brc1cnn(Cc2nnc(SCc3ccccc3-c3ccccc3)o2)c1 [Compound 3, 2-(([1,1′-biphenyl]-2-ylmethyl)thio)-5-((4-bromo-1H-pyrazol-1-yl)methyl)-1,3,4-oxadiazole] | 1.21 | > 50 | 1.36 | 1.75 | – | – | – | – | – | – | – |
| c1ccc(-c2ccccc2CSc2nnc(Cn3cccn3)o2)cc1 [Compound 4, 2-((1H-pyrazol-1-yl)methyl)-5-(([1,1′-biphenyl]-2-ylmethyl)thio)-1,3,4-oxadiazole] | > 50 | > 50 | > 50 | > 50 | – | – | – | – | – | – | – |
| Cc1cc(C)n(Cc2nnc(SCc3ccccc3-c3ccccc3)o2)n1 [Compound 5, 2-(([1,1′-biphenyl]-2-ylmethyl)thio)-5-((3,5-dimethyl-1H-pyrazol-1-yl)methyl)-1,3,4-oxadiazole] | 9.49 | > 50 | 8.68 | 10.7 | – | – | – | – | – | – | – |
| Cc1nn(Cc2nnc(SCc3ccccc3-c3ccccc3)o2)c(C)c1Cl [Compound 7, 2-(([1,1′-biphenyl]-2-ylmethyl)thio)-5-((4-chloro-3,5-dimethyl-1H-pyrazol-1-yl)methyl)-1,3,4-oxadiazole] | 1.11 | > 50 | 1.26 | 1.89 | – | – | – | – | – | – | – |
| Cc1ccccc1CSc1nnc(Cn2nc(C)c(Br)c2C)o1 [Compound 9, 2-((4-bromo-3,5-dimethyl-1H-pyrazol-1-yl)methyl)-5-((2-methylbenzyl)thio)-1,3,4-oxadiazole] | 4.7 | > 50 | 4.2 | 5.55 | – | – | – | – | – | – | – |
| Brc1ccn(Cc2nnc(SCc3ccccc3-c3ccccc3)o2)n1 [Compound 11, 2-(([1,1′-biphenyl]-2-ylmethyl)thio)-5-((3-bromo-1H-pyrazol-1-yl)methyl)-1,3,4-oxadiazole] | 12.9 | > 50 | 13.2 | 12.5 | – | – | – | – | – | – | – |
| Cc1nn(Cc2nnc(SCC(=O)c3ccccc3-c3ccccc3)o2)c(C)c1Br [Compound 13, 1-([1,1′-biphenyl]-2-yl)-2-((5-((4-bromo-3,5-dimethyl-1H-pyrazol-1-yl)methyl)-1,3,4-oxadiazol-2-yl)thio)ethan-1-on] | 42.5 | > 50 | > 50 | > 50 | – | – | – | – | – | – | – |
| Cc1nn(Cc2nnc(SCc3ccccc3)o2)c(C)c1Br [Compound 14, 2-(benzylthio)-5-((4-bromo-3,5-dimethyl-1H-pyrazol-1-yl)methyl)-1,3,4-oxadiazole] | 16.4 | > 50 | 18 | 20.5 | – | – | – | – | – | – | – |
| Cc1nn(Cc2nnc(SCc3ccncc3-c3ccccc3)o2)c(C)c1Br [Compound 16, 2-((4-bromo-3,5-dimethyl-1H-pyrazol-1-yl)methyl)-5-(((3-phenylpyridin-4-yl)methyl)thio)-1,3,4-oxadiazole] | > 50 | > 50 | – | > 50 | – | – | – | – | – | – | – |
| Cc1nn(Cc2nnc(NCc3ccccc3-c3ccccc3)o2)c(C)c1Br [Compound 17, N-([1,1′-biphenyl]-2-ylmethyl)-5-((4-bromo-3,5-dimethyl-1H-pyrazol-1-yl)methyl)-1,3,4-oxadiazol-2-amine] | 19 | 38.1 | 35.2 | 30 | – | – | – | – | – | – | – |
| c1ccc(Cc2nnc(SCc3ccccc3-c3ccccc3)o2)cc1 [Compound 18, 2-(([1,1′-biphenyl]-2-ylmethyl)thio)-5-benzyl-1,3,4-oxadiazole] | 5.18 | > 50 | 6.1 | 6.8 | – | – | – | – | – | – | – |
| Cc1nn(Cc2nnc(SCc3ccccc3-c3cccnc3)o2)c(C)c1Br [Compound 19, 2-((4-bromo-3,5-dimethyl-1H-pyrazol-1-yl)methyl)-5-((2-(pyridin-3-yl)benzyl)thio)-1,3,4-oxadiazole] | > 50 | > 50 | > 50 | > 50 | – | – | – | – | – | – | – |
| CCn1c(Cn2nc(C)c(Br)c2C)nnc1SCc1ccccc1-c1ccccc1 [Compound 24, 3-(([1,1′-biphenyl]-2-ylmethyl)thio)-5-((4-bromo-3,5-dimethyl-1H-pyrazol-1-yl)methyl)-4-ethyl-4H-1,2,4-triazole] | > 50 | > 50 | – | > 50 | 137.8 | – | – | – | – | – | – |
| Brc1ccc(NCc2nnc(SCc3ccccc3-c3ccccc3)o2)cc1 [Compound 47, N-((5-(([1,1′-biphenyl]-2-ylmethyl)thio)-1,3,4-oxadiazol-2-yl)methyl)-4-bromoaniline] | > 50 | > 50 | > 50 | – | – | – | – | – | – | – | – |
| CC(C)c1ccccc1/C=C/c1nnc(Cc2ccc(Br)cc2)o1 [Compound 82, (E)-2-(4-bromobenzyl)-5-(2-isopropylstyryl)-1,3,4-oxadiazole] | – | – | – | – | 91.6 | > 50 | > 50 | > 50 | > 50 | – | – |
| Cc1ccccc1CCc1nnc(Nc2ccc(Br)cc2)o1 [Compound 89, N-(4-bromophenyl)-5-(2-methylphenethyl)-1,3,4-oxadiazol-2-amine] | – | – | – | – | 153.5 | – | > 50 | > 50 | > 50 | > 50 | 48.4 |
| Cc1cc(Nc2nnc(CCc3ccccc3C)o2)ccc1Br [Compound 90, N-(4-bromo-3-methylphenyl)-5-(2-methylphenethyl)-1,3,4-oxadiazol-2-amine] | – | – | – | – | 122.7 | – | > 50 | > 50 | > 50 | > 50 | > 50 |
| CC(C)c1ccccc1/C=C/c1nnc(Nc2ccc(Br)cc2)o1 [Compound 117, (E)-N-(4-bromophenyl)-5-(2-isopropylstyryl)-1,3,4-oxadiazol-2-amine] | – | – | – | – | 225.6 | – | > 50 | > 50 | – | 31.4 | 43.5 |
| CC(C)c1ccccc1/C=C/c1nnc(Cc2ccc(F)c(Cl)c2)o1 [Compound 131, 2-(3-chloro-4-fluorobenzyl)-5-(2-isopropylstyryl)-1,3,4-oxadiazole] | – | – | – | – | – | 1.02 | – | – | – | 0.927 | 0.835 |
| Cc1ccc(Cc2nnc(/C=C/c3ccccc3C(C)C)o2)cc1Br [Compound 145, 2-(3-bromo-4-methylbenzyl)-5-(2-isopropylstyryl)-1,3,4-oxadiazole] | – | – | – | – | 111.2 | > 50 | > 50 | > 50 | > 50 | – | 49.1 |
| FC(F)(F)c1cccc(/C=C/c2nnc(Cc3ccc(Br)cc3)o2)c1Cl [Compound 152, 2-(4-bromobenzyl)-5-(2-chloro-3-(trifluoromethyl)styryl)-1,3,4-oxadiazole] | – | – | – | – | 118.9 | > 50 | > 50 | > 50 | > 50 | – | > 50 |
| CC(C)c1ccc(/C=C/c2nnc(Cc3ccc(Br)cc3)o2)cc1 [Compound 154, 2-(4-bromobenzyl)-5-(4-isopropylstyryl)-1,3,4-oxadiazole] | – | – | – | – | 139.8 | > 50 | > 50 | > 50 | > 50 | – | – |
| Fc1ccc(/C=C/c2nnc(Cc3ccc(F)c(Cl)c3)o2)c(Cl)c1 [Compound 159, (E)-2-(3-chloro-4-fluorobenzyl)-5-(2-chloro-4-fluorostyryl)-1,3,4-oxadiazole] | – | – | – | – | 142.2 | – | > 50 | > 50 | > 50 | > 50 | 39.7 |
| Fc1ccc(/C=C/c2nnc(Nc3ccc(Br)c(F)c3)o2)c(Cl)c1 [Compound 160, (E)-N-(4-bromo-3-fluorophenyl)-5-(2-chloro-4-fluorostyryl)-1,3,4-oxadiazol-2-amine] | – | – | – | – | 195.7 | – | > 50 | > 50 | > 50 | > 50 | > 50 |
| COc1cccc(Cc2nnc(/C=C/c3ccc(F)cc3Cl)o2)c1 [Compound 202, (E)-2-(2-chloro-4-fluorostyryl)-5-(3-methoxybenzyl)-1,3,4-oxadiazole] | – | – | – | – | 131.7 | > 50 | > 50 | > 50 | > 50 | – | > 50 |
| Cc1ncccc1/C=C/c1nnc(Cc2cccc(Br)c2)o1 [Compound 204, (E)-2-(3-bromobenzyl)-5-(2-(2-methylpyridin-3-yl)vinyl)-1,3,4-oxadiazole] | – | – | – | – | – | 2.5 | > 50 | > 50 | > 50 | – | – |
| Fc1ccc(/C=C/c2nnc(Cc3cc(Cl)ccn3)o2)c(Cl)c1 [Compound 206, (E)-2-(2-chloro-4-fluorostyryl)-5-((4-chloropyridin-2-yl)methyl)-1,3,4-oxadiazole] | – | – | – | – | – | 2.26 | > 50 | > 50 | > 50 | – | 1.28 |
| Fc1ccc(/C=C/c2nnc(Cc3ccc(Cl)c(Cl)c3)o2)c(Cl)c1 [Compound 208, 2-(2-chloro-4-fluorostyryl)-5-(3,4-dichlorobenzyl)-1,3,4-oxadiazole] | – | – | – | – | 179.9 | 1.19 | > 50 | > 50 | > 50 | – | 0.72 |
